In patent US8669251B2, “8-fluorophthalazin-1(2H)-one compounds” (Genentech, Inc., priority 2011, dated 2014):

Tested on: production of CD69 by B lymphocytes in human whole blood
Experiment: CD69 Whole Blood Assay (CD69 Hu Blood FACS)
Format: cell-based
Details: human whole blood activated with goat F(ab')2 anti-human IgM, 20 hours; CD69 on CD20 positive cells by FACS; Table 2
Text: A CD69 Whole Blood Assay can be conducted on Formula I compounds to determine the ability of compounds to inhibit the production of CD69 by B lymphocytes in human whole blood activated by crosslinking surface IgM with goat F(ab′)2 anti-human IgM (Example 907). CD69 is a type II C-type lectin involved in lymphocyte migration and cytokine secretion. CD69 expression represents one of the earliest available indicators of leukocyte activation and its rapid induction occurs through transcriptional activation (Vazquez et al (2009) Jour. of Immunology Published Oct. 19, 2009, doi:10.4049/jimmunol.0900839). Concentration-dependent inhibition of antigen receptor stimulation by selective Btk inhibitors induces cell surface expression of the lymphocyte activation marker CD69 (Honigberg et al (2010) Proc. Natl. Acad. Sci. 107(29):13075-13080). Thus, CD69 inhibition by selective Btk inhibitors may be correlated with therapeutic efficacy of certain B-cell disorders.
Human blood is obtained from healthy volunteers, with the following restrictions: 1 week drug-free, non-smokers. Blood (approximately 20 mls to test 8 compounds) is collected by venipuncture into Vacutainer® (Becton, Dickinson and Co.) tubes with sodium heparin.
Solutions of Formula I and II compounds at 10 mM in DMSO are diluted 1:10 in 100% DMSO, then are diluted by three-fold serial dilutions in 100% DMSO for a ten point dose-response curve. The compounds are further diluted 1:10 in PBS and then an aliquot of 5.5 μl of each compound is added in duplicate to a 2 ml 96-well plate; 5.5 μl of 10% DMSO in PBS is added as control and no-stimulus wells. Human whole blood —HWB (100 μl) is added to each well. After mixing the plates are incubated at 37° C., 5% CO2, 100% humidity for 30 minutes. Goat F(ab′)2 anti-human IgM (10 μl of a 500 μg/ml solution, 50 μg/ml final) is added to each well (except the no-stimulus wells) with mixing and the plates are incubated for an additional 20 hours. At the end of the 20 hour incubation, samples are incubated with fluorescent labeled antibodies for 30 minutes, at 37° C., 5% CO2, 100% humidity. Include induced control, unstained and single stains for compensation adjustments and initial voltage settings. Samples are then lysed with PharM Lyse™ (BD Biosciences Pharmingen) according to the manufacturer's instructions. Samples are then transferred to a 96 well plate suitable to be run on the BD Biosciences HTS 96 well system on the LSRII machine. Data acquired and Mean Fluorescence Intensity values were obtained using BD Biosciences DIVA Software. Results are initially analyzed by FACS analysis software (Flow Jo). […] The inhibitory concentration (IC50, IC70, IC90) values are calculated by Prism version 5, using a nonlinear regression curve fit.

| SMILES | CD69 Hu Blood FACS (IC70) [nM] |
| --- | --- |
| CCc1cc(Nc2cc(-c3ccnc(-n4ncc5cc(C(C)(C)C)cc(F)c5c4=O)c3CO)cn(C)c2=O)nn1C [Compound 122, 6-tert-butyl-2-[4-[5-[(5-ethyl-1-methyl-pyrazol-3-yl)amino]-1-methyl-6-oxo-3-pyridyl]-3-(hydroxymethyl)-2-pyridyl]-8-fluoro-phthalazin-1-one] | 37.5 |
| CCn1cc(Nc2nc(-c3ccnc(-n4ncc5cc(C(C)(C)C)cc(F)c5c4=O)c3CO)cn(C)c2=O)cn1 [Compound 123, 6-tert-butyl-2-[4-[6-[(1-ethylpyrazol-4-yl)amino]-4-methyl-5-oxo-pyrazin-2-yl]-3-(hydroxymethyl)-2-pyridyl]-8-fluoro-phthalazin-1-one] | 156 |
| CC(=O)N1CCn2nc(Nc3cc(-c4ccnc(-n5ncc6cc(C(C)(C)C)cc(F)c6c5=O)c4CO)cn(C)c3=O)cc2C1 [Compound 124, 2-[4-[5-[(5-acetyl-6,7-dihydro-4H-pyrazolo[1,5-a]pyrazin-2-yl)amino]-1-methyl-6-oxo-3-pyridyl]-3-(hydroxymethyl)-2-pyridyl]-6-tert-butyl-8-fluoro-phthalazin-1-one] | 41.5 |
| Cc1cnc(Nc2cc(-c3ccnc(-n4ncc5cc(C(C)(C)C)cc(F)c5c4=O)c3CO)cn(C)c2=O)o1 [Compound 125, 6-tert-butyl-8-fluoro-2-[3-(hydroxymethyl)-4-[1-methyl-5-[(5-methyloxazol-2-yl)amino]-6-oxo-3-pyridyl]-2-pyridyl]phthalazin-1-one] | 521 |
| Cn1nc(Nc2cc(-c3ccnc(-n4ncc5cc(C(C)(C)C)cc(F)c5c4=O)c3CO)cn(C)c2=O)cc1C1CC1 [Compound 126, 6-tert-butyl-2-[4-[5-[(5-cyclopropyl-1-methyl-pyrazol-3-yl)amino]-1-methyl-6-oxo-3-pyridyl]-3-(hydroxymethyl)-2-pyridyl]-8-fluoro-phthalazin-1-one] | 44.5 |
| Cc1cc(Nc2cc(-c3ccnc(-n4ncc5cc(C(C)(C)C)cc(F)c5c4=O)c3CO)nn(C)c2=O)nn1C [Compound 127, 6-tert-butyl-2-[4-[5-[(1,5-dimethylpyrazol-3-yl)amino]-1-methyl-6-oxo-pyridazin-3-yl]-3-(hydroxymethyl)-2-pyridyl]-8-fluoro-phthalazin-1-one] | 115 |
| CN1CCn2nc(Nc3cc(-c4ccnc(-n5ncc6cc(C(C)(C)C)cc(F)c6c5=O)c4CO)cn(C)c3=O)cc2C1 [Compound 128, 6-tert-butyl-8-fluoro-2-[3-(hydroxymethyl)-4-[1-methyl-5-[(5-methyl-6,7-dihydro-4H-pyrazolo[1,5-a]pyrazin-2-yl)amino]-6-oxo-3-pyridyl]-2-pyridyl]phthalazin-1-one] | 27.2 |
| Cc1cc(Nc2cc(-c3ccnc(-n4ncc5cc(C(C)(C)C)cc(F)c5c4=O)c3CO)cn(C)c2=O)no1 [Compound 129, 6-tert-butyl-8-fluoro-2-[3-(hydroxymethyl)-4-[1-methyl-5-[(5-methylisoxazol-3-yl)amino]-6-oxo-3-pyridyl]-2-pyridyl]phthalazin-1-one] | 48.8 |
| Cn1cnc(Nc2cc(-c3ccnc(-n4ncc5cc(C(C)(C)C)cc(F)c5c4=O)c3CO)cn(C)c2=O)c1 [Compound 130, 6-tert-butyl-8-fluoro-2-[3-(hydroxymethyl)-4-[1-methyl-5-[(1-methylimidazol-4-yl)amino]-6-oxo-3-pyridyl]-2-pyridyl]phthalazin-1-one] | 152 |
| Cn1cc(-c2ccnc(-n3ncc4cc(C(C)(C)C)cc(F)c4c3=O)c2CO)cc(Nc2cc3n(n2)CCOC3)c1=O [Compound 131, 6-tert-butyl-2-[4-[5-(6,7-dihydro-4H-pyrazolo[5,1-c][1,4]oxazin-2-ylamino)-1-methyl-6-oxo-3-pyridyl]-3-(hydroxymethyl)-2-pyridyl]-8-fluoro-phthalazin-1-one] | 17.1 |
| C[C@@H]1COCCN1C(=O)c1ccc(Nc2cc(-c3ccnc(-n4ncc5cc(C(C)(C)C)cc(F)c5c4=O)c3CO)cn(C)c2=O)nc1 [Compound 132, 6-tert-butyl-8-fluoro-2-[3-(hydroxymethyl)-4-[1-methyl-5-[[5-[(3R)-3-methylmorpholine-4-carbonyl]-2-pyridyl]amino]-6-oxo-3-pyridyl]-2-pyridyl]phthalazin-1-one] | 14 |
| COCCN1CCn2nc(Nc3cc(-c4ccnc(-n5ncc6cc(C(C)(C)C)cc(F)c6c5=O)c4CO)cn(C)c3=O)cc2C1 [Compound 133, 6-tert-butyl-8-fluoro-2-[3-(hydroxymethyl)-4-[5-[[5-(2-methoxyethyl)-6,7-dihydro-4H-pyrazolo[1,5-a]pyrazin-2-yl]amino]-1-methyl-6-oxo-3-pyridyl]-2-pyridyl]phthalazin-1-one] | 14.5 |
| Cn1cc(-c2ccnc(-n3ncc4cc(C(C)(C)C)cc(F)c4c3=O)c2CO)cc(Nc2cc3n(n2)CCN(CC(F)(F)F)C3)c1=O [Compound 134, 6-tert-butyl-8-fluoro-2-[3-(hydroxymethyl)-4-[1-methyl-6-oxo-5-[[5-(2,2,2-trifluoroethyl)-6,7-dihydro-4H-pyrazolo[1,5-a]pyrazin-2-yl]amino]-3-pyridyl]-2-pyridyl]phthalazin-1-one] | 21.6 |
| Cn1cc(-c2ccnc(-n3ncc4cc(C(C)(C)C)cc(F)c4c3=O)c2CO)cc(Nc2cc3n(n2)CCN(CC(F)F)C3)c1=O [Compound 135, 6-tert-butyl-2-[4-[5-[[5-(2,2-difluoroethyl)-6,7-dihydro-4H-pyrazolo[1,5-a]pyrazin-2-yl]amino]-1-methyl-6-oxo-3-pyridyl]-3-(hydroxymethyl)-2-pyridyl]-8-fluoro-phthalazin-1-one] | 20 |
| C[C@H]1COCCN1C(=O)c1ccc(Nc2cc(-c3ccnc(-n4ncc5cc(C(C)(C)C)cc(F)c5c4=O)c3CO)cn(C)c2=O)nc1 [Compound 136, 6-tert-butyl-8-fluoro-2-[3-(hydroxymethyl)-4-[1-methyl-5-[[5-[(3S)-3-methylmorpholine-4-carbonyl]-2-pyridyl]amino]-6-oxo-3-pyridyl]-2-pyridyl]phthalazin-1-one] | 14.5 |
| C[C@H]1CN(C2COC2)CCN1c1ccc(Nc2cc(-c3ccnc(-n4ncc5cc(C(C)(C)C)cc(F)c5c4=O)c3CO)c[nH]c2=O)nc1 [Compound 138, 6-tert-butyl-8-fluoro-2-[3-(hydroxymethyl)-4-[5-[[5-[(2S)-2-methyl-4-(oxetan-3-yl)piperazin-1-yl]-2-pyridyl]amino]-6-oxo-1H-pyridin-3-yl]-2-pyridyl]phthalazin-1-one] | 12.4 |
| Cn1cc(-c2ccnc(-n3ncc4cc(C(C)(C)C)cc(F)c4c3=O)c2CO)cc(Nc2cc3n(n2)CC(C)(C)OC3)c1=O [Compound 139, 6-tert-butyl-2-[4-[5-[(6,6-dimethyl-4,7-dihydropyrazolo[5,1-c][1,4]oxazin-2-yl)amino]-1-methyl-6-oxo-3-pyridyl]-3-(hydroxymethyl)-2-pyridyl]-8-fluoro-phthalazin-1-one] | 61.6 |
| Cn1ccc(Nc2cc(-c3ccnc(-n4ncc5cc(C(C)(C)C)cc(F)c5c4=O)c3CO)cn(C)c2=O)n1 [Compound 140, 6-tert-butyl-8-fluoro-2-[3-(hydroxymethyl)-4-[1-methyl-5-[(1-methylpyrazol-3-yl)amino]-6-oxo-3-pyridyl]-2-pyridyl]phthalazin-1-one] | 68 |
| Cc1cc(Nc2cc(-c3ccnc(-n4ncc5cc(C(C)(C)C)cc(F)c5c4=O)c3CO)nn(C)c2=O)no1 [Compound 141, 6-tert-butyl-8-fluoro-2-[3-(hydroxymethyl)-4-[1-methyl-5-[(5-methylisoxazol-3-yl)amino]-6-oxo-pyridazin-3-yl]-2-pyridyl]phthalazin-1-one] | 295 |
| CCn1ccc(Nc2cc(-c3ccnc(-n4ncc5cc(C(C)(C)C)cc(F)c5c4=O)c3CO)cn(C)c2=O)n1 [Compound 142, 6-tert-butyl-2-[4-[5-[(1-ethylpyrazol-3-yl)amino]-1-methyl-6-oxo-3-pyridyl]-3-(hydroxymethyl)-2-pyridyl]-8-fluoro-phthalazin-1-one] | 168 |
| COCc1cc(Nc2cc(-c3ccnc(-n4ncc5cc(C(C)(C)C)cc(F)c5c4=O)c3CO)cn(C)c2=O)nn1C [Compound 143, 6-tert-butyl-8-fluoro-2-[3-(hydroxymethyl)-4-[5-[[5-(methoxymethyl)-1-methyl-pyrazol-3-yl]amino]-1-methyl-6-oxo-3-pyridyl]-2-pyridyl]phthalazin-1-one] | 13.1 |
